{"source": "patent US11464824B2", "about": "“Peptide capable of improving cognitive function” (THE FOOD SCIENCE INSTITUTE FOUNDATION, priority 2018, dated 2022)", "key": {"[1]": {"test_system": "BrdU-positive cells in the hippocampal dentate gyrus", "assay": "Hippocampal neurogenesis evaluation test using deoxyuridine bromide (BrdU)", "format": "in vivo", "details": "high-fat diet mice, YLG 10 mg/kg/day oral, day 7; FIG. 5", "protocol": "(§1) Four-week-old male dd Y mice were divided into 3 groups (8 mice per group). The mice were reared for 1 week such that Group 1 was fed a normal diet (3.85 kcal/g: 20 kcal % of protein, 70 kcal % of carbohydrate, and 10 kcal % of lipid), and Group 2 and Group 3 were fed a 60% high-fat diet (5.24 kcal/g: 20 kcal % of protein, 20 kcal % of carbohydrate, and 60 kcal % of lipid). During the period, the YLG tripeptide was orally administered to Group 3 daily in an amount of 10 mg/kg/day.\n(§2) On day 6 and day 7 after the initiation of feeding, two behavioral tests (episodic memory evaluation test: object recognition test (ORT), and a spatial memory evaluation test: object location test (OLT)), which are known as cognitive function evaluation systems, were performed, as well as a hippocampal neurogenesis evaluation test using deoxyuridine bromide (BrdU). On day 7, the brain hippocampus was removed, and a BDNF mRNA expression level in the hippocampus was measured.\nOn day 6 after the initiation of feeding, 100 mg/kg of deoxyuridine bromide (BrdU) was intraperitoneally administered to the mice of each group (n=4), and after 24 hours (day 7), perfusion fixation was performed using 4% paraformaldehyde. Next, the whole brain was extracted and frozen to prepare frozen sections on a cryostat. […]"}, "[2]": {"test_system": "male dd Y mice fed a 60% high-fat diet", "assay": "Episodic memory evaluation test: object recognition test (ORT)", "format": "in vivo", "details": "YLG 10 mg/kg/day oral for 1 week, test on day 7, FIG. 2", "protocol": "as §1, §2\nThe ORT is a behavioral test that evaluates episodic memory, which is part of cognitive functions. […] First, the mouse was placed in a square open field for 5 minutes for habituation. […] In Trial 2, the approach time of the mouse for each object was measured. […] The cognitive function of the mice was evaluated using the ratio of the approach time for the novel object to the total approach time for both objects as an index. […]"}, "[3]": {"test_system": "male dd Y mice fed a 60% high-fat diet", "assay": "Glucose tolerance test", "format": "in vivo", "details": "YLG 10 mg/kg/day oral; for blood glucose level in the glucose tolerance test (relative value, level immediately before glucose = 100): day 7", "protocol": "as §1, with “Twelve-week-old” for “Four-week-old”, “(n=8).” for “(8 mice per group).”, “peptide” for “tripeptide”\nOn day 7 after the initiation of feeding, glucose (2 g/kg/p.o.) was administered after fasting for 5 hours. The administration of the YLG peptide on day 7 was performed 2 hours before the glucose administration. Blood was collected from the tail vein immediately before the glucose administration, and 15 minutes, 30 minutes, and 60 minutes after the administration to measure the blood glucose level using a glucose sensor (Nipro Corporation).\n(§3) Tables 1 and 2 show changes in blood glucose level in the glucose tolerance test and changes in blood glucose level in the insulin tolerance test, respectively. The numerical values shown in each table are relative values, taking the blood glucose level immediately before the administration of glucose or insulin as 100."}, "[4]": {"test_system": "male dd Y mice fed a 60% high-fat diet", "assay": "Insulin tolerance test", "format": "in vivo", "details": "YLG 10 mg/kg/day oral; for blood glucose level in the insulin tolerance test (relative value, level immediately before insulin = 100): day 7", "protocol": "As in the glucose tolerance test, twelve-week-old male dd Y mice were divided into 3 groups (n=6-7), and the mice were reared for 1 week such that Group 1 was fed a normal diet, and Group 2 and Group 3 were fed a 60% high-fat diet. During the period, the YLG peptide was orally administered to Group 3 daily in an amount of 10 mg/kg/day. On day 7 after the initiation of feeding, insulin (0.5 U/kg/i.p.) was administered after fasting for 5 hours. The administration of the YLG peptide on day 7 was performed 2 hours before the insulin administration. Blood was collected from the tail vein immediately before insulin administration, and 15 minutes, 30 minutes, and 60 minutes after the administration to measure the blood glucose level using a glucose sensor (Nipro Corporation).\nas §3"}, "[5]": {"test_system": "BDNF mRNA expression in the hippocampus", "assay": "Brain-derived neurotrophic factor (BDNF) mRNA expression measurement test", "format": "in vivo", "details": "high-fat diet mice, YLG 10 mg/kg/day oral, day 7, RT-PCR, standardized with β-actin mRNA; FIG. 6", "protocol": "as §1, §2\nOn day 7 after the initiation of feeding, the mice in each group (n=8) were dissected under anesthesia, and the hippocampus was removed from the brain. The removed hippocampus was stored in RNA later for RNA extraction. […] Then, the brain-derived neurotrophic factor (BDNF) mRNA expression level in the hippocampus was measured by RT-PCR according to a standard method. […]"}, "[6]": {"details": "reported in NPL 4; cited from earlier work"}, "[7]": {"test_system": "male dd Y mice fed a 60% high-fat diet", "assay": "Spatial memory evaluation test: object location test (OLT)", "format": "in vivo", "details": "YLG 10 mg/kg/day oral for 1 week, test on day 7, FIG. 4", "protocol": "as §1, §2\nThe OLT is a behavioral test that evaluates spatial memory, which is part of cognitive functions. […] The difference lies in that the location of only one object is changed in Trial 2. […] The cognitive function of the mice was evaluated using the ratio of the approach time for the object placed at the novel location to the total approach time for both objects as an index. […]"}}}
{"substance": "Tyr-Leu-Gly [YLG peptide]", "values": [{"measurement": "number of BrdU-positive cells in the hippocampal dentate gyrus (hippocampal neurogenesis)", "setting": "[1]", "value": "recovered to a level equal to that of the normal diet group"}, {"measurement": "ratio of the approach time for the novel object to the total approach time for both objects (ORT, episodic memory)", "setting": "[2]", "value": "recovered to a level equal to that of the normal diet group"}, {"measurement": "blood glucose level in the glucose tolerance test (relative value, level immediately before glucose = 100)", "setting": "[3]; 15 min after glucose 2 g/kg p.o.", "value": "190 ± 14"}, {"measurement": "blood glucose level in the glucose tolerance test (relative value, level immediately before glucose = 100)", "setting": "[3]; 30 min after glucose 2 g/kg p.o.", "value": "169 ± 10"}, {"measurement": "blood glucose level in the glucose tolerance test (relative value, level immediately before glucose = 100)", "setting": "[3]; 60 min after glucose 2 g/kg p.o.", "value": "113 ± 5"}, {"measurement": "effect on the increase in blood glucose level caused by high-fat diet intake (glucose tolerance test, in words)", "setting": "[3]", "value": "prevented the increase in blood glucose level"}, {"measurement": "blood glucose level in the insulin tolerance test (relative value, level immediately before insulin = 100)", "setting": "[4]; 15 min after insulin 0.5 U/kg i.p.", "value": "90 ± 2"}, {"measurement": "blood glucose level in the insulin tolerance test (relative value, level immediately before insulin = 100)", "setting": "[4]; 30 min after insulin 0.5 U/kg i.p.", "value": "78 ± 3"}, {"measurement": "blood glucose level in the insulin tolerance test (relative value, level immediately before insulin = 100)", "setting": "[4]; 60 min after insulin 0.5 U/kg i.p.", "value": "70 ± 4"}, {"measurement": "effect on insulin resistance induced by the high-fat diet (glucose and insulin tolerance tests, in words)", "setting": "[4]", "value": "improved insulin resistance induced by the high-fat diet"}, {"measurement": "BDNF mRNA expression level in the hippocampus", "setting": "[5]", "value": "recovered to a level equal to or even greater than that of the normal diet group"}, {"measurement": "anxiolytic effect", "setting": "[6]", "value": "anxiolytic effect"}, {"measurement": "ratio of the approach time for the object placed at the novel location to the total approach time for both objects (OLT, spatial memory)", "setting": "[7]", "value": "recovered to a level equal to that of the normal diet group"}]}
